{"source": "patent US10927106B2", "about": "“Benzothiazole derivatives as DYRK1 inhibitors” (PHARMASUM THERAPEUTICS AS, priority 2017, dated 2021)", "experiment_in_all_cases": "Kinase profiling, 33P ATP filter binding assay", "format_in_all_cases": "biochemical", "details_in_all_cases": "1 micromolar inhibitor concentration, read-out: percentage inhibition", "key": {"Lck": {"molecular_target": "Lck (Homo sapiens (Human), UniProt P06239)"}, "CSK": {"molecular_target": "CSK (Homo sapiens (Human), UniProt P41240)"}, "MAP4K3": {"molecular_target": "MAP4K3 (Homo sapiens (Human), UniProt Q8IVH8)"}, "ULK1": {"molecular_target": "ULK1 (Homo sapiens (Human), UniProt O75385)"}, "IKKb": {"molecular_target": "IKKb (Homo sapiens (Human), UniProt O14920)"}, "MLK3": {"molecular_target": "MLK3 (Homo sapiens (Human), UniProt Q16584)", "sequence (Q16584 whole entry, species assumed)": "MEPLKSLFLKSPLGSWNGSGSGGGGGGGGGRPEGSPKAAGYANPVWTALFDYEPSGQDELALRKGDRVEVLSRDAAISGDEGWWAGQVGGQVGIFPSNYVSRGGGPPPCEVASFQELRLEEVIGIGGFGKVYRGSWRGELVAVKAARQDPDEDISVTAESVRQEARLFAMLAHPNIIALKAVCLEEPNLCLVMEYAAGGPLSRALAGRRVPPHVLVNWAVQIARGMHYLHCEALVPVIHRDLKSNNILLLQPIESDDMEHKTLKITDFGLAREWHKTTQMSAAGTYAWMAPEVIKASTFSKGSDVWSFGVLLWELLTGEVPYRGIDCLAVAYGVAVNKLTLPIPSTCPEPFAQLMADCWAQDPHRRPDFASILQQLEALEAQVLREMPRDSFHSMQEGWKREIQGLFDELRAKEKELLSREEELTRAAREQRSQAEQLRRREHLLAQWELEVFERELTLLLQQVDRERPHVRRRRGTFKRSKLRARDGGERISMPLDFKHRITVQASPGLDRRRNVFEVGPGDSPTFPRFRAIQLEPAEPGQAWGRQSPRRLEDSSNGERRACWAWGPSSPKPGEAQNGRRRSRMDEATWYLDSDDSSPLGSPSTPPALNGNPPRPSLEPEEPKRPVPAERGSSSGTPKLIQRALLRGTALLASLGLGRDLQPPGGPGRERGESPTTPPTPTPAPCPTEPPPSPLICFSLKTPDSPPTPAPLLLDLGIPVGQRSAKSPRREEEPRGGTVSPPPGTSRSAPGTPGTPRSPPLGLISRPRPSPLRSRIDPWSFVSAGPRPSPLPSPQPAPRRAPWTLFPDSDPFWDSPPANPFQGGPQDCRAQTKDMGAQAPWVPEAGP"}, "p38a MAPK": {"molecular_target": "p38a MAPK (Homo sapiens (Human), UniProt Q16539)"}, "DAPK1": {"molecular_target": "DAPK1 (Homo sapiens (Human), UniProt P53355)"}, "TBK1": {"molecular_target": "TBK1 (Homo sapiens (Human), UniProt Q9UHD2)"}, "MINK1": {"molecular_target": "MINK1 (Homo sapiens (Human), UniProt Q8N4C8)", "sequence (Q8N4C8 whole entry, species assumed)": "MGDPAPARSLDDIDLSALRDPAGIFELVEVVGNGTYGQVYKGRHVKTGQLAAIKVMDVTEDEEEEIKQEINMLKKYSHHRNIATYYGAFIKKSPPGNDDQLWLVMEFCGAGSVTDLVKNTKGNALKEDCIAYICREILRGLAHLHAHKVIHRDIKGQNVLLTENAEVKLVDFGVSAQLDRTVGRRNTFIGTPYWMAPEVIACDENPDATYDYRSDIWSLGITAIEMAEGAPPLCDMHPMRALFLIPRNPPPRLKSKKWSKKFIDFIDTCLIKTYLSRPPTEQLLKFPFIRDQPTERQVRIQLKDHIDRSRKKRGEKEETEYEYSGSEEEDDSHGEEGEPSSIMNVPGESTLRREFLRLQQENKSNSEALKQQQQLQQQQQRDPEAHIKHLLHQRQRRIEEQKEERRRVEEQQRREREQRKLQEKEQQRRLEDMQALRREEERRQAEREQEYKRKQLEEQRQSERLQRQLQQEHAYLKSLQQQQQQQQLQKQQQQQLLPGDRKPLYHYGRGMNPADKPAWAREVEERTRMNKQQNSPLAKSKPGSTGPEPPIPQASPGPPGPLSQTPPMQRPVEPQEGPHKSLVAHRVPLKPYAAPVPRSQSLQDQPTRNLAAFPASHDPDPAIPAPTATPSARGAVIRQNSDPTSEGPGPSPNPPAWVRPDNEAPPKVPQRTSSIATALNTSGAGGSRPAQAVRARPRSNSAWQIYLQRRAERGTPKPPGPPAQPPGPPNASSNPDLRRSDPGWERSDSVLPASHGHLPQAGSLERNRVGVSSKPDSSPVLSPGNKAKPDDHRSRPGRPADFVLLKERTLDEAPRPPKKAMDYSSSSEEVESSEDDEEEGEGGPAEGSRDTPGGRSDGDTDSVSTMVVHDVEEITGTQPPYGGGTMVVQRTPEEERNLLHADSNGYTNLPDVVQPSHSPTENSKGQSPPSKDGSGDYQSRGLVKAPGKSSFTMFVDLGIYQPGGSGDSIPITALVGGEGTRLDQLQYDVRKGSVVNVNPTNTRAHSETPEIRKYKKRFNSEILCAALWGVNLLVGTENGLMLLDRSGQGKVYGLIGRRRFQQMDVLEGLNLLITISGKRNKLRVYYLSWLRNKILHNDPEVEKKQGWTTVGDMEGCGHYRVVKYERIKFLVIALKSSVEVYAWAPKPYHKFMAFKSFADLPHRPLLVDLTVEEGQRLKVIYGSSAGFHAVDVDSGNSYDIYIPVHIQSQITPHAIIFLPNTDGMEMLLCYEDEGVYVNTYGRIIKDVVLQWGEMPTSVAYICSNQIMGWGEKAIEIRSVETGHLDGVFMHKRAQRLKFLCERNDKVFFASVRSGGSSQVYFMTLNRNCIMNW"}, "ZAP70": {"molecular_target": "ZAP70 (Homo sapiens (Human), UniProt P43403)", "sequence (P43403 whole entry, species assumed)": "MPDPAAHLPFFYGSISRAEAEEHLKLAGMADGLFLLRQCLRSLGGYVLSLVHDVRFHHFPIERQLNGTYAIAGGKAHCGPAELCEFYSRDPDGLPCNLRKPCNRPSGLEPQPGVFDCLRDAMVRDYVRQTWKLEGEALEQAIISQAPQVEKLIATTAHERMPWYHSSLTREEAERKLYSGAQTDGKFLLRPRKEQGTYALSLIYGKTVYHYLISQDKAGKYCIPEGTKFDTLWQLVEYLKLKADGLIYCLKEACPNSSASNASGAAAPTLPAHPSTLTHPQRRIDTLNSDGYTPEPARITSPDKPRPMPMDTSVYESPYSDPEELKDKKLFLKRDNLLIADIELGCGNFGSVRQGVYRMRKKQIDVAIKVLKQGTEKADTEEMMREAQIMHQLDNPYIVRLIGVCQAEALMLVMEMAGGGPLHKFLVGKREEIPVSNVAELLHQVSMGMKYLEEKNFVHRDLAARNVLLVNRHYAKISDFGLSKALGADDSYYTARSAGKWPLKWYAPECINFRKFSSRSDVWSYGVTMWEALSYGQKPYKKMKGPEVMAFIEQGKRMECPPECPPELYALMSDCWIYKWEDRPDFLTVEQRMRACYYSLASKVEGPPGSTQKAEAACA"}, "NEK2a": {"molecular_target": "NEK2a (Homo sapiens (Human), UniProt P51955)"}, "EPH-B4": {"molecular_target": "EPH-B4 (Homo sapiens (Human), UniProt P54760)"}, "OSR1": {"molecular_target": "OSR1 (Homo sapiens (Human), UniProt O95747)"}, "TTBK1": {"molecular_target": "TTBK1 (Homo sapiens (Human), UniProt Q5TCY1)"}, "CHK1": {"molecular_target": "CHK1 (Homo sapiens (Human), UniProt O14757)"}, "YES1": {"molecular_target": "YES1 (Homo sapiens (Human), UniProt P07947)"}, "PKD1": {"molecular_target": "PKD1 (Homo sapiens (Human), UniProt Q15139)"}, "EPH-B2": {"molecular_target": "EPH-B2 (Homo sapiens (Human), UniProt P29323)"}, "MARK4": {"molecular_target": "MARK4 (Homo sapiens (Human), UniProt Q96L34)"}, "MARK3": {"molecular_target": "MARK3 (Homo sapiens (Human), UniProt P27448)"}, "HIPK3": {"molecular_target": "HIPK3 (Homo sapiens (Human), UniProt Q9H422)"}, "EPH-A4": {"molecular_target": "EPH-A4 (Homo sapiens (Human), UniProt P54764)"}, "Aurora A": {"molecular_target": "Aurora A (Homo sapiens (Human), UniProt O14965)"}, "CK2": {"molecular_target": "CK2 (Homo sapiens (Human), UniProt P68400)"}, "IRR": {"molecular_target": "IRR (Homo sapiens (Human), UniProt P14616)"}, "ULK2": {"molecular_target": "ULK2 (Homo sapiens (Human), UniProt Q8IYT8)"}, "PKCz": {"molecular_target": "PKCz (Homo sapiens (Human), UniProt Q05513)"}, "PRK2": {"molecular_target": "PRK2 (Homo sapiens (Human), UniProt Q16513)"}, "MEKK1": {"molecular_target": "MEKK1 (Homo sapiens (Human), UniProt Q13233)"}, "NUAK1": {"molecular_target": "NUAK1 (Homo sapiens (Human), UniProt O60285)"}, "SYK": {"molecular_target": "SYK (Homo sapiens (Human), UniProt P43405)"}, "JNK2": {"molecular_target": "JNK2 (Homo sapiens (Human), UniProt P45984)", "sequence (P45984 whole entry, species assumed)": "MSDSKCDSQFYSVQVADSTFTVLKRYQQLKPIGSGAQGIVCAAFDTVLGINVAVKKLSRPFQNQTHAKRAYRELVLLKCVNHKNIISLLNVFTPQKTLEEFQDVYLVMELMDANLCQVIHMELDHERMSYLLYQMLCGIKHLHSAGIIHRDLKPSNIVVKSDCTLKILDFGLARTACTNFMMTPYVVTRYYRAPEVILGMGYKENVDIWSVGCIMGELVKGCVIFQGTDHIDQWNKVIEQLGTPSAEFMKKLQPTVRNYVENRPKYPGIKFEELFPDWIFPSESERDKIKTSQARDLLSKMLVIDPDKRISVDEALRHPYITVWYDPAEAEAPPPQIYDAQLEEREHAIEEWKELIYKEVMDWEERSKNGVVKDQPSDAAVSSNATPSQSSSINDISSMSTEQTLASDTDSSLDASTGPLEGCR"}, "MNK2": {"molecular_target": "MNK2 (Homo sapiens (Human), UniProt Q9HBH9)"}, "MPSK1": {"molecular_target": "MPSK1 (Homo sapiens (Human), UniProt O75716)", "sequence (O75716 whole entry, species assumed)": "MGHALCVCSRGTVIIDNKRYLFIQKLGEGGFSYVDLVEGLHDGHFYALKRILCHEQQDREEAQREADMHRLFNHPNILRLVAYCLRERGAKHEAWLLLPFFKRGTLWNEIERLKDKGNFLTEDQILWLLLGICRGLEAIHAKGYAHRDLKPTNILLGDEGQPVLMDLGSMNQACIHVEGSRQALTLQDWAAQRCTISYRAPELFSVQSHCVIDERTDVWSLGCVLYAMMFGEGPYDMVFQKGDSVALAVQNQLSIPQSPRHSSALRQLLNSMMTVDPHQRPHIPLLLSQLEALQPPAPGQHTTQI"}, "PKCa": {"molecular_target": "PKCa (Homo sapiens (Human), UniProt P17252)"}, "BRK": {"molecular_target": "BRK (Homo sapiens (Human), UniProt Q13882)", "sequence (Q13882 whole entry, species assumed)": "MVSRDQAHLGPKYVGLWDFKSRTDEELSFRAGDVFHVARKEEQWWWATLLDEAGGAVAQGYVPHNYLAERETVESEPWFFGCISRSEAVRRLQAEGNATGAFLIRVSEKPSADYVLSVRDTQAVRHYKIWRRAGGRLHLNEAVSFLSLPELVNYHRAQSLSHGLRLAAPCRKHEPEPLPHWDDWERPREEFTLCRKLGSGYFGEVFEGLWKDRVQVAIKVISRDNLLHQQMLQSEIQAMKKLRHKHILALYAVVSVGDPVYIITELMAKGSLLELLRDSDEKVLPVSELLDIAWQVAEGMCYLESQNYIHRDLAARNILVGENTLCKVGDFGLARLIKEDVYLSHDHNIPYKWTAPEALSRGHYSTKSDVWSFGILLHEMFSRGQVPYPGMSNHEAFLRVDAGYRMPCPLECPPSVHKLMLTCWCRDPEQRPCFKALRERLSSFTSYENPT"}, "EPH-A2": {"molecular_target": "EPH-A2 (Homo sapiens (Human), UniProt P29317)"}, "MKK2": {"molecular_target": "MKK2 (Homo sapiens (Human), UniProt P36507)", "sequence (P36507 whole entry, species assumed)": "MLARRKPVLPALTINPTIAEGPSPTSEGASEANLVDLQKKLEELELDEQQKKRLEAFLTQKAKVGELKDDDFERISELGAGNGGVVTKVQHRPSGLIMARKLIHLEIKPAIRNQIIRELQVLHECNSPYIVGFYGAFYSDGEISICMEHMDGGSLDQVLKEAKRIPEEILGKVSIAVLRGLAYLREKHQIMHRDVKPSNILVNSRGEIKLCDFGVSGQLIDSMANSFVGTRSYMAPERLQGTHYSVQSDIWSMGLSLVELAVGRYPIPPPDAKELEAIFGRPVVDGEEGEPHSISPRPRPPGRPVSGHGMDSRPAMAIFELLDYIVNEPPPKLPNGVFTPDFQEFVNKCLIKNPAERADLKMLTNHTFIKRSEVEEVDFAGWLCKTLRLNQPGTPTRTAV"}, "PAK2": {"molecular_target": "PAK2 (Homo sapiens (Human), UniProt Q13177)"}, "S6K1": {"molecular_target": "S6K1 (Homo sapiens (Human), UniProt P23443)"}, "MARK2": {"molecular_target": "MARK2 (Homo sapiens (Human), UniProt Q7KZI7)"}}}
{"smiles": "COc1ccc2sc(-c3cncc(NC(C)=O)c3)nc2c1", "note": "[4-93, N-(5-(5-Methoxybenzo[d]thiazol-2-yl)pyridin-3-yl)acetamide]", "values": [{"measurement": "inhibition at 1 µM", "setting": "Lck", "result": 7, "unit": "%"}, {"measurement": "inhibition at 1 µM", "setting": "CSK", "result": 0, "unit": "%"}, {"measurement": "inhibition at 1 µM", "setting": "MAP4K3", "result": 0, "unit": "%"}, {"measurement": "inhibition at 1 µM", "setting": "ULK1", "result": 0, "unit": "%"}, {"measurement": "inhibition at 1 µM", "setting": "IKKb", "result": 0, "unit": "%"}, {"measurement": "inhibition at 1 µM", "setting": "MLK3", "result": 0, "unit": "%"}, {"measurement": "inhibition at 1 µM", "setting": "p38a MAPK", "result": 0, "unit": "%"}, {"measurement": "inhibition at 1 µM", "setting": "DAPK1", "result": 0, "unit": "%"}, {"measurement": "inhibition at 1 µM", "setting": "TBK1", "result": 0, "unit": "%"}, {"measurement": "inhibition at 1 µM", "setting": "MINK1", "result": 0, "unit": "%"}, {"measurement": "inhibition at 1 µM", "setting": "ZAP70", "result": 0, "unit": "%"}, {"measurement": "inhibition at 1 µM", "setting": "NEK2a", "result": 0, "unit": "%"}, {"measurement": "inhibition at 1 µM", "setting": "EPH-B4", "result": 0, "unit": "%"}, {"measurement": "inhibition at 1 µM", "setting": "OSR1", "result": 0, "unit": "%"}, {"measurement": "inhibition at 1 µM", "setting": "TTBK1", "result": 0, "unit": "%"}, {"measurement": "inhibition at 1 µM", "setting": "CHK1", "result": 0, "unit": "%"}, {"measurement": "inhibition at 1 µM", "setting": "YES1", "result": 0, "unit": "%"}, {"measurement": "inhibition at 1 µM", "setting": "PKD1", "result": 0, "unit": "%"}, {"measurement": "inhibition at 1 µM", "setting": "EPH-B2", "result": 0, "unit": "%"}, {"measurement": "inhibition at 1 µM", "setting": "MARK4", "result": 0, "unit": "%"}, {"measurement": "inhibition at 1 µM", "setting": "MARK3", "result": 1, "unit": "%"}, {"measurement": "inhibition at 1 µM", "setting": "HIPK3", "result": 0, "unit": "%"}, {"measurement": "inhibition at 1 µM", "setting": "EPH-A4", "result": 0, "unit": "%"}, {"measurement": "inhibition at 1 µM", "setting": "Aurora A", "result": 0, "unit": "%"}, {"measurement": "inhibition at 1 µM", "setting": "CK2", "result": 0, "unit": "%"}, {"measurement": "inhibition at 1 µM", "setting": "IRR", "result": 0, "unit": "%"}, {"measurement": "inhibition at 1 µM", "setting": "ULK2", "result": 0, "unit": "%"}, {"measurement": "inhibition at 1 µM", "setting": "PKCz", "result": 0, "unit": "%"}, {"measurement": "inhibition at 1 µM", "setting": "PRK2", "result": 0, "unit": "%"}, {"measurement": "inhibition at 1 µM", "setting": "MEKK1", "result": 0, "unit": "%"}, {"measurement": "inhibition at 1 µM", "setting": "NUAK1", "result": 0, "unit": "%"}, {"measurement": "inhibition at 1 µM", "setting": "SYK", "result": 0, "unit": "%"}, {"measurement": "inhibition at 1 µM", "setting": "JNK2", "result": 0, "unit": "%"}, {"measurement": "inhibition at 1 µM", "setting": "MNK2", "result": 0, "unit": "%"}, {"measurement": "inhibition at 1 µM", "setting": "MPSK1", "result": 0, "unit": "%"}, {"measurement": "inhibition at 1 µM", "setting": "PKCa", "result": 0, "unit": "%"}, {"measurement": "inhibition at 1 µM", "setting": "BRK", "result": 0, "unit": "%"}, {"measurement": "inhibition at 1 µM", "setting": "EPH-A2", "result": 0, "unit": "%"}, {"measurement": "inhibition at 1 µM", "setting": "MKK2", "result": 25, "unit": "%"}, {"measurement": "inhibition at 1 µM", "setting": "PAK2", "result": 0, "unit": "%"}, {"measurement": "inhibition at 1 µM", "setting": "S6K1", "result": 0, "unit": "%"}, {"measurement": "inhibition at 1 µM", "setting": "MARK2", "result": 0, "unit": "%"}]}
{"smiles": "CS(=O)(=O)Nc1cncc(-c2nc3cc(O)ccc3s2)c1", "note": "[4-99, N-(5-(5-Hydroxybenzo[d]thiazol-2-yl)pyridin-3-yl)methanesulfonamide]", "values": [{"measurement": "inhibition at 1 µM", "setting": "Lck", "result": 0, "unit": "%"}, {"measurement": "inhibition at 1 µM", "setting": "CSK", "result": 0, "unit": "%"}, {"measurement": "inhibition at 1 µM", "setting": "MAP4K3", "result": 0, "unit": "%"}, {"measurement": "inhibition at 1 µM", "setting": "ULK1", "result": 0, "unit": "%"}, {"measurement": "inhibition at 1 µM", "setting": "IKKb", "result": 0, "unit": "%"}, {"measurement": "inhibition at 1 µM", "setting": "MLK3", "result": 0, "unit": "%"}, {"measurement": "inhibition at 1 µM", "setting": "p38a MAPK", "result": 0, "unit": "%"}, {"measurement": "inhibition at 1 µM", "setting": "DAPK1", "result": 0, "unit": "%"}, {"measurement": "inhibition at 1 µM", "setting": "TBK1", "result": 0, "unit": "%"}, {"measurement": "inhibition at 1 µM", "setting": "MINK1", "result": 0, "unit": "%"}, {"measurement": "inhibition at 1 µM", "setting": "ZAP70", "result": 0, "unit": "%"}, {"measurement": "inhibition at 1 µM", "setting": "NEK2a", "result": 0, "unit": "%"}, {"measurement": "inhibition at 1 µM", "setting": "EPH-B4", "result": 0, "unit": "%"}, {"measurement": "inhibition at 1 µM", "setting": "OSR1", "result": 0, "unit": "%"}, {"measurement": "inhibition at 1 µM", "setting": "TTBK1", "result": 0, "unit": "%"}, {"measurement": "inhibition at 1 µM", "setting": "CHK1", "result": 0, "unit": "%"}, {"measurement": "inhibition at 1 µM", "setting": "YES1", "result": 0, "unit": "%"}, {"measurement": "inhibition at 1 µM", "setting": "PKD1", "result": 0, "unit": "%"}, {"measurement": "inhibition at 1 µM", "setting": "EPH-B2", "result": 0, "unit": "%"}, {"measurement": "inhibition at 1 µM", "setting": "MARK4", "result": 0, "unit": "%"}, {"measurement": "inhibition at 1 µM", "setting": "MARK3", "result": 0, "unit": "%"}, {"measurement": "inhibition at 1 µM", "setting": "HIPK3", "result": 0, "unit": "%"}, {"measurement": "inhibition at 1 µM", "setting": "EPH-A4", "result": 0, "unit": "%"}, {"measurement": "inhibition at 1 µM", "setting": "Aurora A", "result": 0, "unit": "%"}, {"measurement": "inhibition at 1 µM", "setting": "CK2", "result": 6, "unit": "%"}, {"measurement": "inhibition at 1 µM", "setting": "IRR", "result": 0, "unit": "%"}, {"measurement": "inhibition at 1 µM", "setting": "ULK2", "result": 0, "unit": "%"}, {"measurement": "inhibition at 1 µM", "setting": "PKCz", "result": 0, "unit": "%"}, {"measurement": "inhibition at 1 µM", "setting": "PRK2", "result": 0, "unit": "%"}, {"measurement": "inhibition at 1 µM", "setting": "MEKK1", "result": 0, "unit": "%"}, {"measurement": "inhibition at 1 µM", "setting": "NUAK1", "result": 0, "unit": "%"}, {"measurement": "inhibition at 1 µM", "setting": "SYK", "result": 0, "unit": "%"}, {"measurement": "inhibition at 1 µM", "setting": "JNK2", "result": 0, "unit": "%"}, {"measurement": "inhibition at 1 µM", "setting": "MNK2", "result": 0, "unit": "%"}, {"measurement": "inhibition at 1 µM", "setting": "MPSK1", "result": 11, "unit": "%"}, {"measurement": "inhibition at 1 µM", "setting": "PKCa", "result": 0, "unit": "%"}, {"measurement": "inhibition at 1 µM", "setting": "BRK", "result": 0, "unit": "%"}, {"measurement": "inhibition at 1 µM", "setting": "EPH-A2", "result": 0, "unit": "%"}, {"measurement": "inhibition at 1 µM", "setting": "MKK2", "result": 0, "unit": "%"}, {"measurement": "inhibition at 1 µM", "setting": "PAK2", "result": 0, "unit": "%"}, {"measurement": "inhibition at 1 µM", "setting": "S6K1", "result": 0, "unit": "%"}, {"measurement": "inhibition at 1 µM", "setting": "MARK2", "result": 0, "unit": "%"}]}
